Key:
EAE6-CD8 TCR = type: binding, mouse; details: Jurkat αβ−/− cells, H2-Db tetramer
SP specific CD8+ T cells = test: Tetramer enrichment of SP-specific CD8+ T cells from spleen and LN after immunization; type: in vivo, C57BL/6J mice; details: 10D PI
EAE7-CD8 TCR = type: binding, mouse; details: Jurkat αβ−/− cells, H2-Db tetramer
[1] = test system: experimental autoimmune encephalomyelitis (EAE); test: Induction and evaluation of EAE (clinical scores); type: in vivo, C57BL/6J mice
[2] = test system: MOG35-55 specific CD4+ T cells; test: Tetramer enrichment of MOG35-55 I-Ab specific CD4+ T cells from spleen and LN after immunization; type: in vivo, C57BL/6J mice; details: D10 after immunization
[3] = test system: MOG35-55 specific CD4+ T cells; test: In vitro proliferation/suppression assay (CTV dilution); type: cell-based, mouse; details: CD4+ T cells from MOG immunized mice stimulated with MOG35-55
Procedure: In vitro proliferation/suppression assay. Spleen and LN cells were harvested from WT or immunized mice. Single cell suspensions were prepared, and RBCs were lysed using Ack lysis buffer (ThermoFisher scientific A1049201). […] Post CD4+ T cell enrichment, cells were counted and labelled with CellTrace™ Violet Dye (ThermoFisher scientific C34557) according to manufacturer instructions.
In vitro proliferation/suppression assays were set up according to previously published protocol. Briefly, labelled CD4+ T cells were co-cultured either with CD8+ T cells (1:1 ratio, 0.25×10^6 cells/well) or without CD8+ T cells in the presence of pan DC's (0.75×10^6 cells/well). In some of the suppression experiments cells were pre-included with 10 μg/ml of anti-Qa-1b neutralizing antibody (6A8.6F10.1A16, BD Biosciences). Cells were cultured in a total volume of 200 μl in a 96-well round bottom plate. The CD4+ T cells were stimulated with either MOG35-55 or not. On day 7, the cells were washed and stained with surface antibodies and analyzed on LSR II (Becton Dickinson).

[4] = test system: ovalbumin specific TCR (OT-1) expressed in 58 αβ−/− cells; test: T cell stimulation assay (CD69) with peptide- or protein-pulsed BMDCs; type: cell-based, mouse; details: co-culture with loaded BMDCs
Procedure: T cell stimulation assays. T cell stimulation assays were performed as previously described. All the T cell peptide stimulation experiments were done in 96 well round bottom plates with a 200 μl total volume. T2, K562 cells or BMDCs were pulsed with 10-100 μg of the peptides for 45 minutes, washed once and plated (10,000 cells/well). Cell lines expressing TCRs (100,000 cells/well) were co-cultured with APCs for 18 hr. At the end of stimulation, cells were harvested, washed, and stained with TCRβ, human CD3, and CD69 and analyzed on LSR II (Becton Dickinson) for activation.

6218 TCR = type: binding, mouse; details: Jurkat αβ−/− cells, H2-Db tetramer
[5] = target: T1, yeast H2-Db library peptide enriched by the EAE7-CD8 TCR peptide on H2-Db (mouse); test: binding, other
T1 peptide: RDVHNPDVI

[6] = target: T2, yeast H2-Db library peptide enriched by the EAE7-CD8 TCR peptide on H2-Db (mouse); test: binding, other
T2 peptide: WSLRNLVML

[7] = target: T3, yeast H2-Db library peptide enriched by the EAE7-CD8 TCR peptide on H2-Db (mouse); test: binding, other
T3 peptide: TRLVNDVDL

[8] = target: T4, yeast H2-Db library peptide enriched by the EAE7-CD8 TCR peptide on H2-Db (mouse); test: binding, other
T4 peptide: RRILNLGGM

[9] = target: T5, yeast H2-Db library peptide enriched by the EAE7-CD8 TCR peptide on H2-Db (mouse); test: binding, other
T5 peptide: QRHENLHRM

[10] = target: T6, yeast H2-Db library peptide enriched by the EAE7-CD8 TCR peptide on H2-Db (mouse); test: binding, other
T6 peptide: TCAYNPRGM

[11] = target: T7, surrogate peptide (SP) from the yeast H2-Db library; no match in the mouse genome peptide on H2-Db (mouse); test: multimer staining
T7 peptide: YQPGNWEYI

[12] = target: T8, surrogate peptide (SP) from the yeast H2-Db library; no match in the mouse genome peptide on H2-Db (mouse); test: multimer staining
T8 peptide: HDRVNWEYI

[13] = target: T9, myelin oligodendrocyte glycoprotein (MOG); the tetramer is called MOG35-55 I-Ab in the results peptide on … (mouse); test: multimer staining
T9 peptide: GWYRSPFSRVV

[14] = target: T10, yeast H2-Db library peptide enriched by the EAE6-CD8 TCR peptide on H2-Db (mouse); test: binding, other
T10 peptide: FQRGNRLMWL

[15] = target: T11, yeast H2-Db library peptide enriched by the EAE6-CD8 TCR peptide on H2-Db (mouse); test: binding, other
T11 peptide: NHRNNRYFFL

[16] = target: T12, yeast H2-Db library peptide enriched by the EAE6-CD8 TCR peptide on H2-Db (mouse); test: binding, other
T12 peptide: GTEFNHWAAI

[17] = target: T13, yeast H2-Db library peptide enriched by the EAE6-CD8 TCR peptide on H2-Db (mouse); test: binding, other
T13 peptide: NHRTNRYFFL

[18] = target: T14, yeast H2-Db library peptide enriched by the EAE6-CD8 TCR peptide on H2-Db (mouse); test: binding, other
T14 peptide: ASIANWPLAI

[19] = target: T15, surrogate peptide (SP) from the yeast H2-Db library; no match in the mouse genome peptide on H2-Db (mouse); test: multimer staining
T15 peptide: ASRSNRYFWL

[20] = target: T16, surrogate peptide (SP) from the yeast H2-Db library; no match in the mouse genome peptide on H2-Db (mouse); test: multimer staining
T16 peptide: SMRPNHFFFL

[21] = MOG+SP immunization, spleen and LN
[22] = SP immunization in comparison to WT mice
[23] = Table 6, MOG35-55 with or without SP, mean ± SEM
[24] = Table 6, immunization with MOG35-55, CFA and PTX with or without SP, n=10
[25] = Table 7, MOG, SP challenge, MOG challenge (challenge seven days after first immunization), n=10
[26] = Table 7, challenge seven days after first immunization, affected if clinical scores ≥1 for ≥2 consecutive days
[27] = Table 7, challenge seven days after first immunization, mean ± SEM

ASRSNRYFWL [surrogate peptide for EAE6-CD8 TCR from H2-Db yeast library]
pMHC tetramer staining of EAE6-CD8 TCR cells (EAE6-CD8 TCR): robust staining | frequency of CD8+ T cells specific for the peptide (SP specific CD8+ T cells; [21]): increased | frequency of CD8+ T cells specific for the peptide (SP specific CD8+ T cells; [22]): no change

YQPGNWEYI [top enriched surrogate peptide for EAE7-CD8 TCR]
frequency of CD8+ T cells specific for the peptide (SP specific CD8+ T cells; [22]): no change | pMHC tetramer staining of EAE7-CD8 TCR cells (EAE7-CD8 TCR): robust staining

HDRVNWEYI [36th enriched peptide for EAE7-CD8 TCR]
frequency of CD8+ T cells specific for the peptide (SP specific CD8+ T cells; [21]): increased | frequency of CD8+ T cells specific for the peptide (SP specific CD8+ T cells; [22]): higher frequency | pMHC tetramer staining of EAE7-CD8 TCR cells (EAE7-CD8 TCR): robust tetramer staining

MOG35-55: EAE-inducing myelin oligodendrocyte glycoprotein peptide 35-55 (MEVGWYRSPFSRVVHLYRNGK; UniProt Q61885 63-83, looked up, fragment)
SP specific CD8+ T cells detected (SP specific CD8+ T cells; MOG35-55 immunized mice): very few | incidence of EAE disease (of the mice) ([1]; MOG immunization with or without SP): 100% | CDS, cumulative disease score [1, 23]: 46.3 ± 5.9 | DA, days affected [1, 23]: 16.3 ± 0.7 | DO, day of onset in affected animals [1, 23]: 13.8 ± 0.2 | PS, peak score [1, 23]: 3.2 ± 0.4 | SI, severity index (cumulative disease score/days affected) [1, 23]: 3 ± 0.4 | Incidence (affected/total) [1, 24]: 10/10 | Incidence, percentage affected [1, 24]: 100% | Incidence (affected/total) [1, 25]: 10/10 | Incidence, percentage affected [1, 26]: 100% | CDS, cumulative disease score over 30 days of experiment [1, 27]: 55.8 ± 3.9 | DA, days affected [1, 27]: 17 ± 0.3 | DO, day of onset in affected animals [1, 27]: 13.3 ± 0.3 | PS, peak score [1, 27]: 4 ± 0.1 | SI, severity index (cumulative disease score/days affected) [1, 27]: 3.14 ± 0.2 | frequency/number of MOG35-55 I-Ab tetramer+ CD4+ T cells [2]: elicited | frequency/number of MOG35-55 I-Ab tetramer+ CD4+ T cells ([2]; listed as MOG): increase | CD4+ T cell proliferation in the absence of CD8+ T cells [3]: proliferated robustly

SIINFEKL [ovalbumin derived peptide]
activation (CD69) of OT-1 TCR cells [4]: robust activation

MOG challenge: mice immunized with SP, then challenged with MOG35-55 seven days after immunization (MEVGWYRSPFSRVVHLYRNGK; UniProt Q61885 63-83, looked up, fragment)
Incidence (affected/total) [1, 25]: 6/10 | Incidence, percentage affected [1, 26]: 60% | CDS, cumulative disease score over 30 days of experiment [1, 27]: 43.3 ± 5.3 | DA, days affected [1, 27]: 8.2 ± 2.5 | DO, day of onset in affected animals [1, 27]: 10 ± 2.8 | PS, peak score [1, 27]: 1.5 ± 0.4 | SI, severity index (cumulative disease score/days affected) [1, 27]: 1.29 ± 0.3

SSLENFRAYV [H2-Db-restricted acid polymerase peptide 224-233, ligand of 6218 TCR]
pMHC tetramer staining of 6218 TCR cells (6218 TCR): robust staining

SMRPNHFFFL [surrogate peptide for EAE6-CD8 TCR from H2-Db yeast library]
pMHC tetramer staining of EAE6-CD8 TCR cells (EAE6-CD8 TCR): robust staining | frequency of CD8+ T cells specific for the peptide (SP specific CD8+ T cells; [21]): increased | frequency of CD8+ T cells specific for the peptide (SP specific CD8+ T cells; [22]): higher frequency

B1: EAE7-CD8 (TCR)
alpha mTRAV5D-4 mTRAJ45 CDR3: CAASVNTEGADRLTF
beta mTRBV15 mTRBJ1-1 CDR3: CASTNRGEVFF
binding result [5]: recognises | binding result [6]: recognises | binding result [7]: recognises | binding result [8]: recognises | binding result [9]: recognises | binding result [10]: recognises | binding result [11]: recognises | binding result [12]: recognises

B2: EAE3-CD4 (TCR)
alpha mTRAV14D-1 mTRAJ43 CDR3: CAASGANNNNAPRF
beta mTRBV3 mTRBJ2-5 CDR3: CASSLEGHQDTQYF
binding result [13]: recognises

B3: EAE2-CD4 (TCR)
alpha mTRAV12-1 mTRAJ23 CDR3: CALRNYNQGKLIF
beta mTRBV16 mTRBJ1-4 CDR3: CASSLDQGWDERLFF
binding result [13]: recognises

B4: EAE6-CD8 (TCR)
alpha mTRAV12-1 mTRAJ31 CDR3: CALSDYNRIFF
beta mTRBV19 mTRBJ2-3 CDR3: CASSITPLGGLETLYF
binding result [14]: recognises | binding result [15]: recognises | binding result [16]: recognises | binding result [17]: recognises | binding result [18]: recognises | binding result [19]: recognises | binding result [20]: recognises

B5: ovalbumin protein: whole OVA protein (protein, UniProt P01012 2-386, looked up)
Ovalbumin: GSIGAASMEFCFDVFKELKVHHANENIFYCPIAIMSALAMVYLGAKDSTRTQINKVVRFDKLPGFGDSIEAQCGTSVNVHSSLRDILNQITKPNDVYSFSLASRLYAEERYPILPEYLQCVKELYRGGLEPINFQTAADQARELINSWVESQTNGIIRNVLQPSSVDSQTAMVLVNAIVFKGLWEKAFKDEDTQAMPFRVTEQESKPVQMMYQIGLFRVASMASEKMKILELPFASGTMSMLVLLPDEVSGLEQLESIINFEKLTEWTSSNVMEERKIKVYLPRMKMEEKYNLTSVLMAMGITDVFSSSANLSGISSAESLKISQAVHAAHAEINEAGREVVGSAEAGVDAASVSEEFRADHPFLFCIKHIATNAVLFFGRCVSP
activation (CD69) of OT-1 TCR cells [4]: robustly stimulated

Source: US12636317B2, “Manipulation and use of antigen-specific regulatory T cells” (The Board of Trustees of the Leland Stanford Junior …, priority 2019, dated 2026)
